Data reported in US9895346B2, “Applications of substituent benzyloxy group containing ether compounds for preparing antitumor drugs” (Sinochem Corporation, priority 2013, dated 2018).

How the values were obtained:
colon cancer HCT116 = assay: In vitro cell inhibition assay, colon cancer HCT116; type: cell-based, human; details: Homo sapiens, read-out: Inhibition rate on human cancer cells
Description: (§1) In vitro Cell inhibition assay is as follows:
(§2) The human cancer cell lines used for this assay were bladder cancer J82, T24, prostate cancer LNCap, PC-3, lung cancer A549, H157, H460, H520, colon cancer HCT8, HCT116, RkO, and leukemia HL-60, etc.

[1] = test system: lung cancer cell line A549; assay: In vitro cell inhibition assay (crystal violet), lung cancer A549; type: cell-based, human
Description: as §1, §2
(§3) In vitro cell culture technology was selected for the determination of inhibition rate bladder cancer cell lines J82 and T24, prostate cancer cell lines LNCap and PC-3, lung cancer cell lines A549, H157, H460 and H520. 1000 to 3000 cells were inoculated to 24-well plate, followed by addition of 1 mL culture medium well known to researchers in this field to each well, the cells were cultured in 5% incubator for 24 hours at 37° C., then the different concentration compounds and controls were added to each well. It should be noted that the added volume is not more than 0.5% of total volume. After completion of addition, the cells continued being cultured in incubator for one week, the culture medium was removed and washed by cold PBS of 1 mL once, and then fixed for 10 minutes at room temperature with 1% formalin, followed by wash with PBS of 1 mL. After fixation, stain was carried out with 0.1% crystal violet for 30 minutes. 0.1% crystal violet was recycled. The stained cells were washed gently with deionized water, dried at room temperature and kepted. The inhibition rate was calculated according to the foiling equation. The controls are Selumetinib (AZD6244), Gefitinib, Cisplatin. Inhibition rate=number of left cells each treatment/number of left cells of untreated control×100%

[2] = test system: lung cancer cell line H460; assay: In vitro cell inhibition assay (crystal violet), lung cancer H460; type: cell-based, human
Description: as §1, §2, §3

colon cancer RkO = assay: In vitro cell inhibition assay, colon cancer RkO; type: cell-based, human; details: Homo sapiens, read-out: Inhibition rate on human cancer cells
Description: as §1, §2

colon cancer HCT8 = assay: In vitro cell inhibition assay, colon cancer HCT8; type: cell-based, human; details: Homo sapiens, read-out: Inhibition rate on human cancer cells
Description: as §1, §2

[3] = test system: bladder cancer cell line T24; assay: In vitro cell inhibition assay (crystal violet), bladder cancer T24; type: cell-based, human
Description: as §1, §2, §3

[4] = test system: bladder cancer cell line J82; assay: In vitro cell inhibition assay (crystal violet), bladder cancer J82; type: cell-based, human
Description: as §1, §2, §3

[5] = test system: lung cancer cell line H157; assay: In vitro cell inhibition assay (crystal violet), lung cancer H157; type: cell-based, human
Description: as §1, §2, §3

[6] = test system: prostate cancer cell line PC-3; assay: In vitro cell inhibition assay (crystal violet), prostate cancer PC-3; type: cell-based, human
Description: as §1, §2, §3

[7] = test system: lung cancer cell line H520; assay: In vitro cell inhibition assay (crystal violet), lung cancer H520; type: cell-based, human
Description: as §1, §2, §3

[8] = test system: prostate cancer cell line LNCap; assay: In vitro cell inhibition assay (crystal violet), prostate cancer LNCap; type: cell-based, human
Description: as §1, §2, §3

[9] = test system: human leukemia HL-60 cells; assay: Proliferation inhibition of human leukemia HL-60 cells, MTT method; type: cell-based; details: 48 h incubation, OPTI-MEM medium
Protocol: The inhibition rate of human leukemia HL-60 cells was evaluated by regular MTT method. The human leukemia HL-60 cells were picked up from cell incubator, after washed for twice using PBS, cells were digested by 0.25% trypsin, and then add medium to terminate the digestion. After cells were collected using centrifuge and re-suspended, counting cells under inverted microscope and adding medium to make a density which was 5×10^4 cells/mL. After 100 μL aliquots were added to each well of 96-well microtiter plates, cells were cultured in 5% incubator for overnight at 37° C., then the different concentration compounds were added to each well. After incubation for 48 h, MTT solution was added to each well and plates were then incubated for 4 h. The MTT tetrazolium was reduced to formazan by living cells. Then the formazan crystals were dissolved though adding DMSO to each well. The absorbance was read at 570 nm with a microplate reader.

[10] = Homo sapiens, T24, 5.0 μM, read-out: Inhibition rate on human cancer cells
[11] = Homo sapiens, J82, 5.0 μM, read-out: Inhibition rate on human cancer cells
[12] = Homo sapiens, PC-3, 5.0 μM, read-out: Inhibition rate on human cancer cells
[13] = Homo sapiens, 5.0 μM, read-out: Inhibition rate on human cancer cells

Cn1cnc2c(F)c(Nc3ccc(Br)cc3Cl)c(C(=O)NOCCO)cc21 [Selumetinib, reference compound]
inhibition at 0.25 µM (colon cancer HCT116; HCT 116, 0.25 μM): 50%
inhibition at 0.5 µM (colon cancer HCT116; HCT 116, 0.5 μM): 75%
inhibition at 1 µM (colon cancer HCT116; HCT 116, 1.0 μM): 80%
inhibition at 2.5 µM (colon cancer HCT116; HCT 116, 2.5 μM): 85%
inhibition at 5 µM (colon cancer HCT116; HCT 116, 5.0 μM): 90%
inhibition at 0.25 µM ([1]; Homo sapiens, A549, 0.25 μM, read-out: Inhibition rate on human cancer cells): 0%
inhibition at 0.5 µM ([1]; Homo sapiens, A549, 0.5 μM, read-out: Inhibition rate on human cancer cells): 0%
inhibition at 1 µM ([1]; Homo sapiens, A549, 1.0 μM, read-out: Inhibition rate on human cancer cells): 0%
inhibition at 2.5 µM ([1]; Homo sapiens, A549, 2.5 μM, read-out: Inhibition rate on human cancer cells): 0%
inhibition at 5 µM ([1]; Homo sapiens, A549, 5.0 μM, read-out: Inhibition rate on human cancer cells): 10%
inhibition at 0.25 µM ([2]; Homo sapiens, NCI-H460, H460, 0.25 μM, read-out: Inhibition rate on human cancer cells): 0%
inhibition at 0.5 µM ([2]; Homo sapiens, NCI-H460, H460, 0.5 μM, read-out: Inhibition rate on human cancer cells): 0%
inhibition at 1 µM ([2]; Homo sapiens, NCI-H460, H460, 1.0 μM, read-out: Inhibition rate on human cancer cells): 0%
inhibition at 2.5 µM ([2]; Homo sapiens, NCI-H460, H460, 2.5 μM, read-out: Inhibition rate on human cancer cells): 0%
inhibition at 5 µM ([2]; Homo sapiens, NCI-H460, H460, 5.0 μM, read-out: Inhibition rate on human cancer cells): 60%
inhibition at 0.25 µM (colon cancer RkO; 0.25 μM): 30%
inhibition at 0.5 µM (colon cancer RkO; 0.5 μM): 80%
inhibition at 1 µM (colon cancer RkO; 1.0 μM): 85%
inhibition at 2.5 µM (colon cancer RkO; 2.5 μM): 90%
inhibition at 5 µM (colon cancer RkO; 5.0 μM): 95%
inhibition at 1 µM (colon cancer HCT8; HCT 8, 1.0 μM): 20%
inhibition at 2.5 µM (colon cancer HCT8; HCT 8, 2.5 μM): 40%
inhibition at 5 µM (colon cancer HCT8; HCT 8, 5.0 μM): 50%
inhibition at 5 µM [3, 10]: 70%
inhibition at 5 µM [4, 11]: 70%
inhibition at 5 µM ([5]; Homo sapiens, NCI-H157, H157, 5.0 μM, read-out: Inhibition rate on human cancer cells): 20%
inhibition at 5 µM [6, 12]: 0%
inhibition at 5 µM ([7]; Homo sapiens, NCI-H520, H520, 5.0 μM, read-out: Inhibition rate on human cancer cells): 20%
inhibition at 5 µM [8, 13]: 20%

CO/C=C(/C(=O)OC)c1ccccc1COc1cc(C(F)(F)F)nc(Nc2ccc(Cl)cc2Cl)n1 [compound A, reference compound]
inhibition at 0.5 µM ([3]; Homo sapiens, T24, 0.5 μM, read-out: Inhibition rate on human cancer cells): 0%
inhibition at 1 µM ([3]; Homo sapiens, T24, 1.0 μM, read-out: Inhibition rate on human cancer cells): 100%
inhibition at 2.5 µM ([3]; Homo sapiens, T24, 2.5 μM, read-out: Inhibition rate on human cancer cells): 100%
inhibition at 5 µM [3, 10]: 100%
inhibition at 0.25 µM ([4]; Homo sapiens, J82, 0.25 μM, read-out: Inhibition rate on human cancer cells): 0%
inhibition at 0.5 µM ([4]; Homo sapiens, J82, 0.5 μM, read-out: Inhibition rate on human cancer cells): 50%
inhibition at 1 µM ([4]; Homo sapiens, J82, 1.0 μM, read-out: Inhibition rate on human cancer cells): 95%
inhibition at 2.5 µM ([4]; Homo sapiens, J82, 2.5 μM, read-out: Inhibition rate on human cancer cells): 100%
inhibition at 5 µM [4, 11]: 100%
inhibition at 0.5 µM ([6]; Homo sapiens, PC-3, 0.5 μM, read-out: Inhibition rate on human cancer cells): 0%
inhibition at 1 µM ([6]; Homo sapiens, PC-3, 1.0 μM, read-out: Inhibition rate on human cancer cells): 85%
inhibition at 2.5 µM ([6]; Homo sapiens, PC-3, 2.5 μM, read-out: Inhibition rate on human cancer cells): 100%
inhibition at 5 µM [6, 12]: 100%
inhibition at 0.5 µM ([8]; Homo sapiens, 0.5 μM, read-out: Inhibition rate on human cancer cells): 0%
inhibition at 1 µM ([8]; Homo sapiens, 1.0 μM, read-out: Inhibition rate on human cancer cells): 100%
inhibition at 2.5 µM ([8]; Homo sapiens, 2.5 μM, read-out: Inhibition rate on human cancer cells): 100%
inhibition at 5 µM [8, 13]: 100%

CO/C=C(/C(=O)OC)c1ccccc1COc1cc(-c2ccc(Cl)cc2)nn1C [pyraoxystrobin]
Inhibition rate on human cancer cells ([3]; T24, 0.25 μM): 100%
Inhibition rate on human cancer cells ([3]; T24, 0.5 μM): 100%
Inhibition rate on human cancer cells ([3]; T24, 1.0 μM): 100%
Inhibition rate on human cancer cells ([3]; T24, 2.5 μM): 100%
Inhibition rate on human cancer cells ([3]; T24, 5.0 μM): 100%
Inhibition rate on human cancer cells ([4]; J82, 0.25 μM): 70%
Inhibition rate on human cancer cells ([4]; J82, 0.5 μM): 100%
Inhibition rate on human cancer cells ([4]; J82, 1.0 μM): 100%
Inhibition rate on human cancer cells ([4]; J82, 2.5 μM): 100%
Inhibition rate on human cancer cells ([4]; J82, 5.0 μM): 100%
Inhibition rate on human cancer cells ([6]; PC-3, 0.25 μM): 100%
Inhibition rate on human cancer cells ([6]; PC-3, 0.5 μM): 100%
Inhibition rate on human cancer cells ([6]; PC-3, 1.0 μM): 100%
Inhibition rate on human cancer cells ([6]; PC-3, 2.5 μM): 100%
Inhibition rate on human cancer cells ([6]; PC-3, 5.0 μM): 100%
Inhibition rate on human cancer cells ([8]; 0.25 μM): 100%
Inhibition rate on human cancer cells ([8]; 0.5 μM): 100%
Inhibition rate on human cancer cells ([8]; 1.0 μM): 100%
Inhibition rate on human cancer cells ([8]; 2.5 μM): 100%
Inhibition rate on human cancer cells ([8]; 5.0 μM): 100%

jiaxiangjunzhi [Compound 28-5]
Inhibition rate on human cancer cells ([1]; A549, 1.0 μM): 80%
Inhibition rate on human cancer cells ([1]; A549, 2.5 μM): 100%
Inhibition rate on human cancer cells ([1]; A549, 5.0 μM): 100%
Inhibition rate on human cancer cells ([2]; H460, 0.5 μM): 100%
Inhibition rate on human cancer cells ([2]; H460, 1.0 μM): 100%
Inhibition rate on human cancer cells ([2]; H460, 2.5 μM): 100%
Inhibition rate on human cancer cells ([2]; H460, 5.0 μM): 100%
Inhibition rate on human cancer cells ([3]; T24, 0.25 μM): 100%
Inhibition rate on human cancer cells ([3]; T24, 0.5 μM): 100%
Inhibition rate on human cancer cells ([3]; T24, 1.0 μM): 100%
Inhibition rate on human cancer cells ([3]; T24, 2.5 μM): 100%
Inhibition rate on human cancer cells ([3]; T24, 5.0 μM): 100%
Inhibition rate on human cancer cells ([4]; J82, 1.0 μM): 80%
Inhibition rate on human cancer cells ([4]; J82, 2.5 μM): 100%
Inhibition rate on human cancer cells ([4]; J82, 5.0 μM): 100%
Inhibition rate on human cancer cells ([5]; H157, 0.5 μM): 100%
Inhibition rate on human cancer cells ([5]; H157, 1.0 μM): 100%
Inhibition rate on human cancer cells ([5]; H157, 2.5 μM): 100%
Inhibition rate on human cancer cells ([5]; H157, 5.0 μM): 100%
Inhibition rate on human cancer cells ([6]; PC-3, 1.0 μM): 100%
Inhibition rate on human cancer cells ([6]; PC-3, 2.5 μM): 100%
Inhibition rate on human cancer cells ([6]; PC-3, 5.0 μM): 100%
Inhibition rate on human cancer cells ([7]; H520, 0.25 μM): 70%
Inhibition rate on human cancer cells ([7]; H520, 0.5 μM): 80%
Inhibition rate on human cancer cells ([7]; H520, 1.0 μM): 90%
Inhibition rate on human cancer cells ([7]; H520, 2.5 μM): 100%
Inhibition rate on human cancer cells ([7]; H520, 5.0 μM): 100%
Inhibition rate on human cancer cells ([8]; 1.0 μM): 100%
Inhibition rate on human cancer cells ([8]; 2.5 μM): 100%
Inhibition rate on human cancer cells ([8]; 5.0 μM): 100%
Proliferation inhibitory effect on human leukemia HL-60 cell (%) ([9]; concentration 1 μM): 31.7%
Proliferation inhibitory effect on human leukemia HL-60 cell (%) ([9]; concentration 10 μM): 59.3%
Proliferation inhibitory effect on human leukemia HL-60 cell (%) ([9]; concentration 100 μM): 73.8%
